The values below come from patent US20130203817A1, “Novel Inhibitors of LYN Kinase” (VASSA INFORMATICS, priority 2012, published 2013).

The test system of experiment [1] is phosphorylated (activated) LYN. Conditions: BT549 cells, Western blot; cited from earlier work. For orientation: Immunoblotting shows a protein as a band on a membrane.
The test system of experiment [2] is mesenchymal breast cancer lines. The settings on record: at concentrations that inhibit LYN kinase activity; cited from earlier work.
Another experiment concerns the target Abl kinase (BCR-Abl) (Homo sapiens, UniProt P00519). Description: Kinase profiling, Abl. The experiment is classed as biochemical. Conditions: VI201 at 100 μM. The procedure:
(§1) The three compounds identified in Example 1 were tested for kinase activity at Millipore (Dundee UK). The compounds were shipped as 10 mM stocks in DMSO as per Millipore testing standards. The testing consisted of two initial phases:
(§2) (a) Profiling against a set of approximately 60 kinases, selected as representative of all kinases and current kinase drug targets, to determine the selectivity of the compounds; and, (b) IC50 testing against EGFR, the kinase target of the initial search template molecule.

Another experiment has as its target WNK3(h) (Homo sapiens, UniProt Q9BYP7). The experiment is described as follows: Millipore kinase profiling, WNK3. It is filed as biochemical. Conditions: VI201 at 100 μM. The procedure: as §1, §2
(§3) In particular, compound VI201 inhibited three kinases, in one case restricting the activity to about 20% at 100 μM concentration (Table 1).

The next experiment has as its target Lyn(h) (Homo sapiens, UniProt P07948). The experiment is described as follows: Millipore kinase profiling, Lyn. The settings on record: VI201 at 100 μM. The experiment is classed as biochemical. The procedure: as §1, §2, §3
The target in a further experiment is Pim-1(h) (Homo sapiens, UniProt P11309). Description: Millipore kinase profiling, Pim-1. The settings on record: VI201 at 100 μM. It is filed as biochemical. The procedure:
as §1, §2, §3

For the next experiment, the target named is GSK3β kinase (Homo sapiens, UniProt P49841). Description: Kinase profiling, GSK3β. The experiment is classed as biochemical. Conditions: VI201 at 100 μM. The procedure: as §1, §2
Sequence of GSK3β kinase (P49841 whole entry): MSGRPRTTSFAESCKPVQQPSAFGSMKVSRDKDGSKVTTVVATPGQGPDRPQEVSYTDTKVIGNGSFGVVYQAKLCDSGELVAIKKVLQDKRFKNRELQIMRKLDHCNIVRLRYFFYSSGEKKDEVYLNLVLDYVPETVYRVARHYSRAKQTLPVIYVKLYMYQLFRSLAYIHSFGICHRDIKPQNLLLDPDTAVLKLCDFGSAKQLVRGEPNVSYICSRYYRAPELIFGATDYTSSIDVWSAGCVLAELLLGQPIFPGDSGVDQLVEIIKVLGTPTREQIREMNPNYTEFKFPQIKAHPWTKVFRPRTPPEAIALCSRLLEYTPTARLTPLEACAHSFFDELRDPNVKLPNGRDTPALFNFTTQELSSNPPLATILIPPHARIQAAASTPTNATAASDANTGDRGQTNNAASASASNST

Sequence of Lyn(h) (P07948 1-491 isoform P07948-2): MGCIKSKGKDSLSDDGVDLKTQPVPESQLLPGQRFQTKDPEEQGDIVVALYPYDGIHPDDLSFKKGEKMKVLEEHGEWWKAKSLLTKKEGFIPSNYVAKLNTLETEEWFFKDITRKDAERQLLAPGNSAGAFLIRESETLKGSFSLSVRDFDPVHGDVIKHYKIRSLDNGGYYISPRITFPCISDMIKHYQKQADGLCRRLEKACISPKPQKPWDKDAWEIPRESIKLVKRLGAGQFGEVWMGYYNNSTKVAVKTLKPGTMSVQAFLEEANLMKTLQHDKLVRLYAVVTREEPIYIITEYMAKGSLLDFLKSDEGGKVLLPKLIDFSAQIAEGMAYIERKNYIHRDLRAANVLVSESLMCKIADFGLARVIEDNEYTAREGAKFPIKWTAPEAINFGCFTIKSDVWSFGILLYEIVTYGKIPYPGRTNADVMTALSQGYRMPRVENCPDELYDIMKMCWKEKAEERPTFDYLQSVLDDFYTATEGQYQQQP
Sequence of WNK3(h) (Q9BYP7 whole entry): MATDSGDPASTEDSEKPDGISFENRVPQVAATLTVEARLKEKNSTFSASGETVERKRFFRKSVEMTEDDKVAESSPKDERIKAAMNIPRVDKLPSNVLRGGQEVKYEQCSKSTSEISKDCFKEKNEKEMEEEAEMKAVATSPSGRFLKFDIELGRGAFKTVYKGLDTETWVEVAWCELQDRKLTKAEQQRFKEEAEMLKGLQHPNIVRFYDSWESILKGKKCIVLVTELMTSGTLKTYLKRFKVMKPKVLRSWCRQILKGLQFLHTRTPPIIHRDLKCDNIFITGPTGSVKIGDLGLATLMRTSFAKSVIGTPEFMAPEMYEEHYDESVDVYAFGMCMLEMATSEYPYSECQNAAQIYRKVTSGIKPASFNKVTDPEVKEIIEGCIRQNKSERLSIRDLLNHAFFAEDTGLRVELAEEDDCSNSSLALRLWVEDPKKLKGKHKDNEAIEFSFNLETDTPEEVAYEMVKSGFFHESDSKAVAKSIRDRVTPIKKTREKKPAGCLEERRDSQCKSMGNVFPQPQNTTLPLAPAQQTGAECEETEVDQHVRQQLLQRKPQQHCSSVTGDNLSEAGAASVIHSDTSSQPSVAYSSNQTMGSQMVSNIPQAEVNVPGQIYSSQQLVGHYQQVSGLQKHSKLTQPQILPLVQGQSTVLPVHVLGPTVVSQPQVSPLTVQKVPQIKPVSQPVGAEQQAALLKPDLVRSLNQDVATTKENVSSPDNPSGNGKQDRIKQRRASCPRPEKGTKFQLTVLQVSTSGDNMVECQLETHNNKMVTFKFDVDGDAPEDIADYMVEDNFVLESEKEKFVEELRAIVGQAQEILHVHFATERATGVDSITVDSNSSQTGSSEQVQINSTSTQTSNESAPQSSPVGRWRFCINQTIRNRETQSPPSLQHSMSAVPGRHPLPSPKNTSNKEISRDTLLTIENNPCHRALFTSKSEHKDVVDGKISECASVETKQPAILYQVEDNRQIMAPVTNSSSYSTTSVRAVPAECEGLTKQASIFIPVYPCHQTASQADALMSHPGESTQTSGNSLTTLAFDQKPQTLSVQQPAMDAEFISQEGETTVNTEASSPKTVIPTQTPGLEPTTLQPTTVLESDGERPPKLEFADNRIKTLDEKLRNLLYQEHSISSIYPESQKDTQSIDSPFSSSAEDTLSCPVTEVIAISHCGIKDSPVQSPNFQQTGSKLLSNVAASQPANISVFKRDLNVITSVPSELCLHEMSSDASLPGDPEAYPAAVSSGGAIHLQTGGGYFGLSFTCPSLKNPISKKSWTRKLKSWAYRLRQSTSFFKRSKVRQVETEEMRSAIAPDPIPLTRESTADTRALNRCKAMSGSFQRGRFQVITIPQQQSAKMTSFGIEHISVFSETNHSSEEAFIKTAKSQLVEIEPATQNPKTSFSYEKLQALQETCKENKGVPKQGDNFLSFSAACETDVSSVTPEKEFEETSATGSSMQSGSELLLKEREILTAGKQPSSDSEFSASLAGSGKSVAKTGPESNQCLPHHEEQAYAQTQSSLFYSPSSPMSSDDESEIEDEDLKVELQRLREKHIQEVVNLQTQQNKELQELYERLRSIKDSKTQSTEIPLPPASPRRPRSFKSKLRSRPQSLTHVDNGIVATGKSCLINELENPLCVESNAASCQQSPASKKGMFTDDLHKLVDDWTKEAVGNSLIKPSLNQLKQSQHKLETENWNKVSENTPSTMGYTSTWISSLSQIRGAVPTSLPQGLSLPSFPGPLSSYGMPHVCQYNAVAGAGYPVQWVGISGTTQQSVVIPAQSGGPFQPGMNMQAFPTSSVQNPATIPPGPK
Sequence of Abl kinase (BCR-Abl) (P00519 27-1130 limits assumed): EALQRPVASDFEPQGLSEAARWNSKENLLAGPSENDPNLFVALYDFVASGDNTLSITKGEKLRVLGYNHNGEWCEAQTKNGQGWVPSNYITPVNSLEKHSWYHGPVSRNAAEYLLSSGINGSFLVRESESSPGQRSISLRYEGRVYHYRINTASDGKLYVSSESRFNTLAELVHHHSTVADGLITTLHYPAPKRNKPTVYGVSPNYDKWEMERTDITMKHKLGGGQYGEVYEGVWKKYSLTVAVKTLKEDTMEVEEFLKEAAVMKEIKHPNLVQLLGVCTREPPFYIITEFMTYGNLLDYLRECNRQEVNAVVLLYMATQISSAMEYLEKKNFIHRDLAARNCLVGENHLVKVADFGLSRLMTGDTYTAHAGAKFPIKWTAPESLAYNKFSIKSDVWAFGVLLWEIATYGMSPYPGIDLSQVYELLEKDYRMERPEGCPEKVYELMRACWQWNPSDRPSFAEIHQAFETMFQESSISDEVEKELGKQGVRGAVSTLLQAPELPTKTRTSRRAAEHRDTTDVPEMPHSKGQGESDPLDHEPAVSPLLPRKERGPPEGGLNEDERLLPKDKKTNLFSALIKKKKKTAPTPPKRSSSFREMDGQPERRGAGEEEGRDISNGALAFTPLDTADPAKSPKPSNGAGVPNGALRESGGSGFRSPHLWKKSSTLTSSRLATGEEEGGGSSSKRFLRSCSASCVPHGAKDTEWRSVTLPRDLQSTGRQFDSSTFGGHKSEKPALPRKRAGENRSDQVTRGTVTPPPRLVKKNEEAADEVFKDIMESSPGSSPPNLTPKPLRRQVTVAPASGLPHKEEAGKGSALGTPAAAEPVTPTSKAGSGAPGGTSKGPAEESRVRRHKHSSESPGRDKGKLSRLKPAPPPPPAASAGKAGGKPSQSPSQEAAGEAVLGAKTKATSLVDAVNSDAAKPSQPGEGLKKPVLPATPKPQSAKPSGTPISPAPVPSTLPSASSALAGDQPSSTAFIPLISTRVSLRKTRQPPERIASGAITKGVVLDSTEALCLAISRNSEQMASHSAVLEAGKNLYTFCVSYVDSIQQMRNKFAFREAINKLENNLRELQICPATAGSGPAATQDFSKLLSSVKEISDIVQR
Sequence of Pim-1(h) (P11309 whole entry): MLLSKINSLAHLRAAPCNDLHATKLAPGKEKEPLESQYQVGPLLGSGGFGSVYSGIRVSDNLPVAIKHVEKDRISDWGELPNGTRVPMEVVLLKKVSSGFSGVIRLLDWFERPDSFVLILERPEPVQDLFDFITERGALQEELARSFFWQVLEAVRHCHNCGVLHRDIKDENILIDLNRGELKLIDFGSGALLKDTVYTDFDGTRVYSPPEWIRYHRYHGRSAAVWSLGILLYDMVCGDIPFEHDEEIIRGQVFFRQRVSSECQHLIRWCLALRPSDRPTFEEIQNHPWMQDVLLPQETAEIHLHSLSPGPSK

With `Cc1nc(Nc2ncc(C(=O)Nc3c(C)cccc3Cl)s2)cc(N2CCN(CCO)CC2)n1` [Dasatinib, N-(2-chloro-6-methylphenyl)-2-[[6-[4-(2-hydroxyethyl)-1-piperazinyl]-2-methyl-4-pyrimidinyl]amino]-5-thiazole carboxamide], in experiment [1], the “phosphorylated (activated) LYN” value is “decreased phosphorylated (activated) LYN”. For the same compound, in experiment [2], the cell invasion entry is “blocked invasion” and the cell proliferation result is “not proliferation”.
As to “N-(2,3-dimethylphenyl)-3-(3-(pyridin-2-yl)-1,2,4-thiadiazol-5-yl)propanamide [VI201]”, the “inhibition of Abl kinase (BCR-Abl)” value at Abl kinase (BCR-Abl) came to 5%. Also, the “inhibition of WNK3 kinase” value against WNK3(h) amounted to 37%. Further, the “inhibition of LYN kinase” value against Lyn(h) turned out to be 82%. Moreover, on Pim-1(h), the “inhibition of Pim-1 kinase” value was 44%. At GSK3β kinase, the “inhibition of GSK3β kinase” value is on record as 26%.
